Like-named read-outs stand apart in the source and are kept apart here. One block for each molecule: values may come before it.
Columns and labels:
[1] = tested on: Sup-B15 BCR-ABL positive human acute lymphoblastic leukemia (ALL) cell line; experiment: Cell viability assay, Sup-B15 leukemia cells (flow cytometry, vital dye exclusion); format: cell-based; conditions: for IC50: 72 h, vital dye exclusion and flow cytometry, read-out: Mean IC50 (+/- SEM) in cell viability assay, SupB15 Ph+ ALL; for ability to kill leukemia cells, potency compared in words: Sup-B15 cell viability assays
From the text: (§1) Leukemia cell assays: Effects of chemical changes on ability to kill cells as observed in cell viability assays using the BCR-ABL positive human acute lymphoblastic leukemia (ALL) cell line, Sup-B15 are described. Assays using the Sup-B15 cell line were designed to determine efficacy of azacyclic constrained small molecule analogs of FTY720 in killing leukemia cells. Analogs were generated using the synthesis methods mentioned above. Sup-B15 cells were maintained at 2-3 million/mL in RPMI 1640 (by Mediatech™) supplemented with 10% fetal calf serum (by Sigma-Aldrich™), 10 mM Hepes (by Mediatech™), 55 μM β-mercaptoethanol (by Sigma-Aldrich™), 2 mM L-glutamine (by Mediatech™), and antibiotics. BV173, Nalm-6, and Blin-1 were maintained at 1-2 million/mL and CCRF-CEM at less than 500,000/mL in the same medium. BMp190 cells were created by transducing murine bone marrow cells with pMIC-p190 which expresses the p190 isoform of BCR-Abl and human CD4 from an IRES; these cells were kept at 1-2 million/mL in RPMI supplemented as above.
(§2) Flow cytometry: Much of the biological activity presented is shown through flow cytometry data. […] Here, IC50 flow cytometry assays were used. In them, viability was determined at 72 hours by vital dye exclusion [propium iodide or DAPI (4′,6-diamindino-2-phenylindole)]. To measure nutrient receptor expression following exposure to FTY720 and azacyclic constrained analogs of FTY720, surface 4F2hc expression was measured after 3 hours of drug treatment by staining 150,000 cells with phycoerythrin-conjugated mouse anti-human CD98 (by BD Biosciences™). Analysis was restricted to viable cells.
(§3) All samples for the disclosed sets of data were analyzed on a BD LSR II flow cytometer and data analyzed with FlowJo™ software (by Treestar™). IC50's were calculated and statistical tests were performed using GraphPad Prism™.

[2] = tested on: BMp190 cells (murine bone marrow transduced with BCR-Abl p190); experiment: Cell viability assay, BCR-Abl p190-expressing murine bone marrow (BM-p190); format: cell-based; conditions: 72 h, vital dye exclusion and flow cytometry, read-out: Mean IC50 (+/- SEM) in cell viability assay, BM-p190
From the text: as §1, §2, §3

[3] = tested on: BV173 Ph+ ALL cell line; experiment: Cell viability assay, BV173; format: cell-based, human; conditions: 72 h, vital dye exclusion and flow cytometry, read-out: Mean IC50 (+/- SEM) in cell viability assay, BV173 Ph+ ALL
From the text: as §1, §2, §3

[4] = tested on: CCRF-CEM Ph- ALL cell line; experiment: Cell viability assay, CCRF-CEM; format: cell-based, human; conditions: 72 h, vital dye exclusion and flow cytometry, read-out: Mean IC50 (+/- SEM) in cell viability assay, CCRF-CEM Ph- ALL
From the text: as §1, §2, §3

[5] = tested on: Nalm-6 Ph- ALL cell line; experiment: Cell viability assay, Nalm-6; format: cell-based, human; conditions: 72 h, vital dye exclusion and flow cytometry, read-out: Mean IC50 (+/- SEM) in cell viability assay, Nalm-6 Ph- ALL
From the text: as §1, §2, §3

[6] = tested on: Blin-1 Ph- ALL cell line; experiment: Cell viability assay, Blin-1; format: cell-based, human; conditions: 72 h, vital dye exclusion and flow cytometry, read-out: Mean IC50 (+/- SEM) in cell viability assay, Blin-1 Ph- ALL
From the text: as §1, §2, §3

[7] = tested on: PC3 prostate cancer cell line; experiment: Cell viability assay, PC3; format: cell-based, human; conditions: 72 h, vital dye exclusion and flow cytometry, read-out: Mean IC50 (+/- SEM) in cell viability assay, PC3 prostate
Method: as §2, with “In them, viability was determined at 72 hours by vital dye exclusion [propium iodide or DAPI (4′,6-diamindino-2-phenylindole)].” left out, “cells. All samples for the disclosed sets of data were analyzed on a BD LSR II flow cytometer and data analyzed with FlowJo™ software (by Treestar™). IC50's were calculated and statistical tests were performed using GraphPad Prism™.” for “cells.”

[8] = tested on: DU145 prostate cancer cell line; experiment: Cell viability assay, DU145; format: cell-based, human; conditions: 72 h, vital dye exclusion and flow cytometry, read-out: Mean IC50 (+/- SEM) in cell viability assay, DU145 prostate
Method: as §2, with “In them, viability was determined at 72 hours by vital dye exclusion [propium iodide or DAPI (4′,6-diamindino-2-phenylindole)].” left out, “cells. All samples for the disclosed sets of data were analyzed on a BD LSR II flow cytometer and data analyzed with FlowJo™ software (by Treestar™). IC50's were calculated and statistical tests were performed using GraphPad Prism™.” for “cells.”

[9] = target: T1, sphingosine kinase 2 (Mus musculus, UniProt Q9JIA7); experiment: Phosphorylation by sphingosine kinase 2 in cells; format: cell-based
T1 construct: endogenous in cells
T1 sequence (Q9JIA7 1-617): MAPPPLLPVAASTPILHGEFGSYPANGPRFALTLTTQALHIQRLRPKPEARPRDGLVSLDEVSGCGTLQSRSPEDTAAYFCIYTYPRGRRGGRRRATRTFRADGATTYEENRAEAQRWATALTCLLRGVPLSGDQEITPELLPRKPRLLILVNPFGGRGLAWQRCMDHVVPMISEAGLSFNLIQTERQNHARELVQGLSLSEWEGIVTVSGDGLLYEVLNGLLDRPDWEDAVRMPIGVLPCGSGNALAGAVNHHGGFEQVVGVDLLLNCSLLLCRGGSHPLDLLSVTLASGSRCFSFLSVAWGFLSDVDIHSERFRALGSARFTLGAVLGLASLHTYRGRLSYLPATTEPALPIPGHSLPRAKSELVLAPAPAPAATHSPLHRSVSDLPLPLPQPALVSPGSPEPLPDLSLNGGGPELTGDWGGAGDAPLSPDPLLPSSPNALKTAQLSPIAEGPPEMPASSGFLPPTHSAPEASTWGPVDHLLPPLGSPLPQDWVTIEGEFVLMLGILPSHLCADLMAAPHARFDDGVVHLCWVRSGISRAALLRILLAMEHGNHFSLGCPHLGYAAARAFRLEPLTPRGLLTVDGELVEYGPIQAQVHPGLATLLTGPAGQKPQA
Method: The importance of phosphorylation in the activity of compound 6 was then examined. In this study MEF knockout lines that show the same differential sensitivity to compound 6 relative to its enantiomers as leukemia cells were used (FIG. 10h). […] A phosphate and a non-phosphorylatable analog of compound 6 were then tested.

[10] = Mouse heart rate by telemetry; format: in vivo; conditions: telemetry for 24 h after administration of anti-cancer dose
From the text: (§4) As previously discussed, FTY720 itself cannot be used in cancer patients because phosphorylation of FTY720 by SphKs makes FTY720-P, which acts at S1P receptors to cause bradycardia and immunosuppression (on-target effect for primary use).

[11] = tested on: circulating lymphocytes; experiment: Lymphocyte sequestration (circulating lymphocytes); format: in vivo, mouse; conditions: number of circulating lymphocytes 12 h after dosage
From the text: as §4

IC50 [1]: 7.7 ± 0.8 µM
IC50 [4]: 11 ± 1.3 µM
IC50 [7]: 14.3 ± 1.2 µM
IC50 [8]: 10.8 ± 0.4 µM
SMILES: CCCCCCCCc1ccc(CO[C@H]2CN[C@H](CO)C2)cc1.Cl [Compound 5]
IC50 [2]: 5.7 ± 1.1 µM
IC50 [3]: 10.4 ± 0.7 µM
IC50 [5]: 15 ± 2.1 µM
IC50 [6]: 7.5 ± 0.1 µM
phosphorylation by sphingosine kinase 2 in cells [9]: phosphorylated by sphingosine kinase 2 in cells

SMILES: CCCCCCCCc1ccc(CO[C@@H]2CN[C@@H](COC)C2)cc1.Cl [Compound 15, (2R,4S)-2-(methoxymethyl)-4-((4-octylbenzyl)oxy)-pyrrolidine hydrochloride salt]
ability to kill leukemia cells, potency compared in words ([1]; hydrochloride salt): reduced the potency

IC50 ([1]; Homo sapiens, SUP-B15): 6.8 ± 0.7 µM
IC50 ([4]; Homo sapiens, CCRF-CEM): 6.8 ± 0.3 µM
IC50 ([7]; Homo sapiens): 9.8 ± 0.9 µM
IC50 ([8]; Homo sapiens, DU-145): 6.5 ± 0.9 µM
lymphocyte sequestration / immunosuppression [11]: causes lymphocyte sequestration
SMILES: CCCCCCCCc1ccc(CCC(N)(CO)CO)cc1.Cl [FTY720, 2-Amino-2-[2-(4-octylphenyl)ethyl]propane 1,3-diol hydrochloride]
IC50 ([2]; Mus musculus): 3.3 ± 0.2 µM
IC50 ([3]; Homo sapiens, BV-173): 6.3 ± 0.4 µM
IC50 ([5]; Homo sapiens, NALM-6): 9.6 ± 1.9 µM
IC50 ([6]; Homo sapiens): 5.5 ± 0.1 µM
effect on heart rate [10]: dramatic drop in heart rate

SMILES: CCCCCCCCc1ccc(CO[C@H]2CN[C@H](C)C2)cc1.Cl [Compound 13]
ability to kill leukemia cells, potency compared in words [1]: no detectable effect on the potency

SMILES: CCCCCCCCc1ccc(CO[C@@H]2CN[C@@H](C)C2)cc1.Cl [Compound 14]
ability to kill leukemia cells, potency compared in words [1]: decreased the activity

SMILES: CCCCCCCCc1ccc(COC2CCNC2)cc1.Cl (centres unmarked) [Compound 16]
ability to kill leukemia cells, potency compared in words [1]: only a marginal effect on activity

Reference: patent US10077236B2, “Azacyclic constrained analogs of FTY720” (The Regents of the University of California, priority 2013, dated 2018)
